Here are results for four molecules from PubChem BioAssay AID1259407 (Chemical Carcinogenesis Research Information System (CCRIS), 2018).

This data set deals with CCRIS mutagenicity, Ames/micronucleus/aberration tests. In words: CCRIS mutagenicity studies.
Where [1] appears, read: Test System: AMES SALMONELLA TYPHIMURIUM, Strain/Indicator: TA98, Metabolic Activation: NONE, Method: STANDARD PLATE.
The mark [2] stands for this setting: Test System: AMES SALMONELLA TYPHIMURIUM, Strain/Indicator: TA98, Metabolic Activation: RAT, LIVER, S-9, AROCLOR 1254, Method: STANDARD PLATE.
Where [3] appears, read: Test System: AMES SALMONELLA TYPHIMURIUM, Strain/Indicator: TA100, Metabolic Activation: NONE, Method: STANDARD PLATE.
[4] abbreviates: Test System: AMES SALMONELLA TYPHIMURIUM, Strain/Indicator: TA100, Metabolic Activation: RAT, LIVER, S-9, AROCLOR 1254, Method: STANDARD PLATE.
[5] abbreviates: Test System: AMES SALMONELLA TYPHIMURIUM, Strain/Indicator: TA1535, Metabolic Activation: NONE, Method: STANDARD PLATE.
[6] abbreviates: Test System: AMES SALMONELLA TYPHIMURIUM, Strain/Indicator: TA1535, Metabolic Activation: RAT, LIVER, S-9, AROCLOR 1254, Method: STANDARD PLATE.
Setting [7] is: Test System: AMES SALMONELLA TYPHIMURIUM, Strain/Indicator: TA1537, Metabolic Activation: NONE, Method: STANDARD PLATE.
The mark [8] stands for this setting: Test System: AMES SALMONELLA TYPHIMURIUM, Strain/Indicator: TA1537, Metabolic Activation: RAT, LIVER, S-9, AROCLOR 1254, Method: STANDARD PLATE.
Setting [9] is: Test System: AMES SALMONELLA TYPHIMURIUM, Strain/Indicator: TA1538, Metabolic Activation: NONE, Method: STANDARD PLATE.
Where [10] appears, read: Test System: AMES SALMONELLA TYPHIMURIUM, Strain/Indicator: TA1538, Metabolic Activation: RAT, LIVER, S-9, AROCLOR 1254, Method: STANDARD PLATE.

The source made the active and inactive calls. How the calls were made is not given here.

`Nc1cccc(S(=O)(=O)O)c1`: the mutagenic call was “inactive; negative” (Test System: AMES SALMONELLA TYPHIMURIUM, Strain/Indicator: TA97, Metabolic Activation: HAMSTER, LIVER, S-9, AROCLOR 1254 (10 OR 30%), Method: PREINCUBATION); “inactive; negative” (Test System: AMES SALMONELLA TYPHIMURIUM, Strain/Indicator: TA97, Metabolic Activation: NONE, Method: PREINCUBATION); “inactive; negative” (Test System: AMES SALMONELLA TYPHIMURIUM, Strain/Indicator: TA97, Metabolic Activation: RAT, LIVER, S-9, AROCLOR 1254 (10 OR 30%), Method: PREINCUBATION); “inactive; negative” (Test System: AMES SALMONELLA TYPHIMURIUM, Strain/Indicator: TA98, Metabolic Activation: HAMSTER, LIVER, S-9, AROCLOR 1254 (10 OR 30%), Method: PREINCUBATION); “inactive; negative” (Test System: AMES SALMONELLA TYPHIMURIUM, Strain/Indicator: TA98, Metabolic Activation: NONE, Method: PREINCUBATION); “inactive; negative” (Test System: AMES SALMONELLA TYPHIMURIUM, Strain/Indicator: TA98, Metabolic Activation: RAT, LIVER, S-9, AROCLOR 1254 (10 OR 30%), Method: PREINCUBATION). The mutagenic call runs as follows: (Test System: AMES SALMONELLA TYPHIMURIUM, Strain/Indicator: TA98, Metabolic Activation: S-9, Method: PREINCUBATION) “inactive; negative”; (Test System: AMES SALMONELLA TYPHIMURIUM, Strain/Indicator: TA100, Metabolic Activation: HAMSTER, LIVER, S-9, AROCLOR 1254 (10 OR 30%), Method: PREINCUBATION) “inactive; negative”; (Test System: AMES SALMONELLA TYPHIMURIUM, Strain/Indicator: TA100, Metabolic Activation: NONE, Method: PREINCUBATION) “inactive; negative”; (Test System: AMES SALMONELLA TYPHIMURIUM, Strain/Indicator: TA100, Metabolic Activation: RAT, LIVER, S-9, AROCLOR 1254 (10 OR 30%), Method: PREINCUBATION) “inactive; negative”; (Test System: AMES SALMONELLA TYPHIMURIUM, Strain/Indicator: TA100, Metabolic Activation: S-9, Method: PREINCUBATION) “inactive; negative”; (Test System: AMES SALMONELLA TYPHIMURIUM, Strain/Indicator: TA1535, Metabolic Activation: HAMSTER, LIVER, S-9, AROCLOR 1254 (10 OR 30%), Method: PREINCUBATION) “inactive; negative”. For the same molecule, the mutagenic call by setting is: (Test System: AMES SALMONELLA TYPHIMURIUM, Strain/Indicator: TA1535, Metabolic Activation: NONE, Method: PREINCUBATION) “inactive; negative”; (Test System: AMES SALMONELLA TYPHIMURIUM, Strain/Indicator: TA1535, Metabolic Activation: RAT, LIVER, S-9, AROCLOR 1254 (10 OR 30%), Method: PREINCUBATION) “inactive; negative”; (Test System: UDS RODENT HEPATOCYTES, Strain/Indicator: THY INCORP (NON-S-PHASE), Metabolic Activation: NONE, Method: AUTORADIOGRAPHY) “inactive; negative”.

Regarding `CC(=O)N(C)c1ccc(N=Nc2ccc(N(C)C)cc2)cc1`, the mutagenic call is “active; positive” (Test System: AMES SALMONELLA TYPHIMURIUM, Strain/Indicator: TA98, Metabolic Activation: RAT, LIVER, S-9, POLYCHLORINATED BIPHENYLS, Method: PREINCUBATION) and “active; positive” (Test System: AMES SALMONELLA TYPHIMURIUM, Strain/Indicator: TA100, Metabolic Activation: RAT, LIVER, S-9, POLYCHLORINATED BIPHENYLS, Method: PREINCUBATION).

Consider `C=C(C)C(=O)OCC(C)(C)C`, for which the mutagenic call under setting [1] was “inactive; negative”; the mutagenic call under setting [2] is “inactive; negative”; the mutagenic call (Test System: AMES SALMONELLA TYPHIMURIUM, Strain/Indicator: TA98, Metabolic Activation: RAT, LIVER, S-9, SODIUM PHENOBARBITAL, Method: STANDARD PLATE) is “inactive; negative”; the mutagenic call under setting [3] is “inactive; negative”; the mutagenic call under setting [4] was “inactive; negative”; the mutagenic call (Test System: AMES SALMONELLA TYPHIMURIUM, Strain/Indicator: TA100, Metabolic Activation: RAT, LIVER, S-9, SODIUM PHENOBARBITAL, Method: STANDARD PLATE) is “inactive; negative”. In addition, the mutagenic call under setting [5] was “inactive; negative”; the mutagenic call under setting [6] was “inactive; negative”; the mutagenic call (Test System: AMES SALMONELLA TYPHIMURIUM, Strain/Indicator: TA1535, Metabolic Activation: RAT, LIVER, S-9, SODIUM PHENOBARBITAL, Method: STANDARD PLATE) was “inactive; negative”; the mutagenic call under setting [7] is “inactive; negative”; the mutagenic call under setting [8] was “inactive; negative”; the mutagenic call (Test System: AMES SALMONELLA TYPHIMURIUM, Strain/Indicator: TA1537, Metabolic Activation: RAT, LIVER, S-9, SODIUM PHENOBARBITAL, Method: STANDARD PLATE) was “inactive; negative”. Moreover, the mutagenic call was “inactive; negative” under setting [9]; “inactive; negative” under setting [10]; “inactive; negative” (Test System: AMES SALMONELLA TYPHIMURIUM, Strain/Indicator: TA1538, Metabolic Activation: RAT, LIVER, S-9, SODIUM PHENOBARBITAL, Method: STANDARD PLATE).

Take `C[n+]1cccc(C(=O)[O-])c1`: the mutagenic call runs as follows: (Test System: AMES SALMONELLA TYPHIMURIUM, Strain/Indicator: TA98, Metabolic Activation: HAMSTER, LIVER, S-9, AROCLOR 1254, Method: STANDARD PLATE) “inactive; negative”; under setting [1], “inactive; negative”; (Test System: AMES SALMONELLA TYPHIMURIUM, Strain/Indicator: TA98, Metabolic Activation: RAT LIVER S-9, CHLOROPHENE, Method: STANDARD PLATE (COMPOUND HEATED AT 250 DEGREES CELSIUS FOR 20 MIN)) “active; positive”; under setting [2], “inactive; negative”; (Test System: AMES SALMONELLA TYPHIMURIUM, Strain/Indicator: TA100, Metabolic Activation: HAMSTER, LIVER, S-9, AROCLOR 1254, Method: STANDARD PLATE) “inactive; negative”; under setting [3], “inactive; negative”. Also, the mutagenic call under setting [4] is “inactive; negative”; the mutagenic call (Test System: AMES SALMONELLA TYPHIMURIUM, Strain/Indicator: TA1535, Metabolic Activation: HAMSTER, LIVER, S-9, AROCLOR 1254, Method: STANDARD PLATE) is “inactive; negative”; the mutagenic call under setting [5] is “inactive; negative”; the mutagenic call under setting [6] is “inactive; negative”; the mutagenic call (Test System: AMES SALMONELLA TYPHIMURIUM, Strain/Indicator: TA1537, Metabolic Activation: HAMSTER, LIVER, S-9, AROCLOR 1254, Method: STANDARD PLATE) is “inactive; negative”; the mutagenic call under setting [7] was “inactive; negative”. Besides, the mutagenic call reads like this: under setting [8], “inactive; negative”; (Test System: AMES SALMONELLA TYPHIMURIUM, Strain/Indicator: TA1538, Metabolic Activation: HAMSTER, LIVER, S-9, AROCLOR 1254, Method: STANDARD PLATE) “inactive; negative”; under setting [9], “inactive; negative”; under setting [10], “inactive; negative”; (Test System: MOUSE LYMPHOMA, Strain/Indicator: L5178Y (TK+/TK-), Metabolic Activation: NONE, Method: SUSPENSION/PLATE) “inactive; negative. reevaluation of results: inconclusive”; (Test System: MOUSE LYMPHOMA, Strain/Indicator: L5178Y (TK+/TK-), Metabolic Activation: RAT, LIVER, S-9, AROCLOR 1254, Method: SUSPENSION/PLATE) “inactive; negative. reevaluation of results: inconclusive”.
